Source: ChEMBL document CHEMBL2074400, “Transporter-mediated renal handling of nafamostat mesilate” (J Pharm Sci, 2004)

Molecular target: ATP-dependent translocase ABCB1 (Homo sapiens, UniProt P08183)
Test: TP_TRANSPORTER: transepithelial transport in LLC-GA5-COL150 cells
Format: functional, cell-based
Conditions: pig

ATP-dependent translocase ABCB1, sequence (P08183 whole entry): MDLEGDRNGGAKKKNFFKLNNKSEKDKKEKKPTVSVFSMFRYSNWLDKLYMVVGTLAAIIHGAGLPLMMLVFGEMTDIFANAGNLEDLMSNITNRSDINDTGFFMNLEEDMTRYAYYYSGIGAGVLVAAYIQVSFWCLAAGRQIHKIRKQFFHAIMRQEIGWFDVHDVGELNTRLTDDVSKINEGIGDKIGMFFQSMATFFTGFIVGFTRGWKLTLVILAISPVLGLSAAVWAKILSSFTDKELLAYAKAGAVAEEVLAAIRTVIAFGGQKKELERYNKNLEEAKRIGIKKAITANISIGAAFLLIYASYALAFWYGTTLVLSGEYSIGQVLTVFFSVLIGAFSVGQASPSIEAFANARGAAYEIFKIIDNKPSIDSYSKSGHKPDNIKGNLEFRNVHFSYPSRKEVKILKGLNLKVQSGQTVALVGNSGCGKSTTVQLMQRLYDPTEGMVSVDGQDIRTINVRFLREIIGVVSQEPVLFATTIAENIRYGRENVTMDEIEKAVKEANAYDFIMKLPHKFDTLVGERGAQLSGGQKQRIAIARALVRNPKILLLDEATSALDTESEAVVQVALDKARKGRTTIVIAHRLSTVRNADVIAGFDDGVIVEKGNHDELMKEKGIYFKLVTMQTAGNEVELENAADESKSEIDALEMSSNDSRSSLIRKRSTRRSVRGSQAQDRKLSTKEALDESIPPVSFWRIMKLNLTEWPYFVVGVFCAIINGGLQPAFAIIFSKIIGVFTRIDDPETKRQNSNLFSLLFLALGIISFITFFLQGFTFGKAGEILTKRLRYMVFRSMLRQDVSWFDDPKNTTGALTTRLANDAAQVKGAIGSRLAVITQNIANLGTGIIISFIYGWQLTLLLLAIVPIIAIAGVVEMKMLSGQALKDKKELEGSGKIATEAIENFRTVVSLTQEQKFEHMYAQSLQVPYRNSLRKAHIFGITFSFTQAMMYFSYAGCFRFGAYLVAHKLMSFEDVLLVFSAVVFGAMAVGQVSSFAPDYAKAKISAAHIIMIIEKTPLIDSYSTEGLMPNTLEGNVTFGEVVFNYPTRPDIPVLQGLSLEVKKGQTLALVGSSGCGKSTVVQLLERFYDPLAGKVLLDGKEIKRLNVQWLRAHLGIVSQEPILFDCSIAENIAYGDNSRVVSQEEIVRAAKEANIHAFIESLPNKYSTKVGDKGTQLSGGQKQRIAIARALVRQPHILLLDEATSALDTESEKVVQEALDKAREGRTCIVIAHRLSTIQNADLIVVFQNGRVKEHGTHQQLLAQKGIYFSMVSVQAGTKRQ

- Activity: is not a substrate [-]
Structure (SMILES): CS(=O)(=O)O.N=C(N)Nc1ccc(C(=O)Oc2ccc3cc(C(=N)N)ccc3c2)cc1
